Measured values as given in ChEMBL document CHEMBL5357031, “Design and Synthesis of Cytotoxic Water-Soluble Rocaglaol Derivatives against HEL Cells by Inhibiting Fli-1” (J Nat Prod, 2024).
Active and inactive are the calls of the source.

Assays:
HEL [1] = test: Induction of apoptosis in HEL cells assessed as upregulation of cleaved caspase-3 expression at 0.1 to 0.4 uM incubated for 48 hrs by Western blot analysis; format: functional, cell-based; conditions: Homo sapiens, dose 0.1-0.4 µM
[2] = target: T1, Friend leukemia integration 1 transcription factor (Homo sapiens) (UniProt Q01543); test: Binding affinity to Fli-1 in HEL cells assessed as increase in thermal stability at 0.4 uM preincubated for 1 hr followed by heating at 40 to 60 degreeC by CETSA assay; format: cell-based
T1 sequence (whole entry): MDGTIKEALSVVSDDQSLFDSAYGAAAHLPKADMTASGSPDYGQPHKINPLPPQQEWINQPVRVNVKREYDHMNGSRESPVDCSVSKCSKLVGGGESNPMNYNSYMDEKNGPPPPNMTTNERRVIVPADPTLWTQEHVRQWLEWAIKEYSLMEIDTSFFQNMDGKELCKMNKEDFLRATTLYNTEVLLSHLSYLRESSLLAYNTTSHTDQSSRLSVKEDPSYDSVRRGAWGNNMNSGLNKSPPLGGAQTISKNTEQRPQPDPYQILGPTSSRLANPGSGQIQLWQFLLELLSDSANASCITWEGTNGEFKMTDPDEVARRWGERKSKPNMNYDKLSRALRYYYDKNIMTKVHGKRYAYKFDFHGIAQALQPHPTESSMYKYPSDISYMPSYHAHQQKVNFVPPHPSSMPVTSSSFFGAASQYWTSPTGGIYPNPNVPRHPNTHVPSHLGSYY

HEL [3] = test: Induction of apoptosis in HEL cells assessed as upregulation of cleaved caspase-9 expression at 0.1 to 0.4 uM incubated for 48 hrs by Western blot analysis; format: functional, cell-based; conditions: Homo sapiens, dose 0.1-0.4 µM
HEL [4] = test: Induction of apoptosis in HEL cells assessed as downregulation of caspase-3 expression at 0.1 to 0.4 uM incubated for 48 hrs by Western blot analysis; format: functional, cell-based; conditions: Homo sapiens, dose 0.1-0.4 µM
HEL [5] = test: Induction of apoptosis in HEL cells assessed as downregulation of caspase-9 expression at 0.1 to 0.4 uM incubated for 48 hrs by Western blot analysis; format: functional, cell-based; conditions: Homo sapiens, dose 0.1-0.4 µM
[6] = target: T1, Friend leukemia integration 1 transcription factor (Homo sapiens); test: Inhibition of Fli-1 in HEL cells by Western blot analysis; format: cell-based; conditions: dose 0.1-0.4 µM
HEL [7] = test: Induction of apoptosis in HEL cells assessed as upregulation of cleaved PARP expression at 0.1 to 0.4 uM incubated for 48 hrs by Western blot analysis; format: functional, cell-based; conditions: Homo sapiens, dose 0.1-0.4 µM
HEL [8] = test: Induction of apoptosis in HEL cells assessed as downregulation of PARP expression at 0.1 to 0.4 uM incubated for 48 hrs by Western blot analysis; format: functional, cell-based; conditions: Homo sapiens, dose 0.1-0.4 µM

COc1cc(OC)c2c(c1)O[C@@]1(c3ccc(OCCCCCN4CCN(C)CC4)cc3)[C@H](c3ccccc3)C[C@@H](O)[C@@]21O (racemic; form 2)
active: Activity (HEL [1]) | Activity [2] | Activity (HEL [3]) | Activity (HEL [4]) | Activity (HEL [5]) | inhibition [6] Dose-Dependent Effect | Activity (HEL [7]) | Activity (HEL [8])
